According to patent publication US20230263822A1, “MODULATION OF FACTOR 11 EXPRESSION” (Ionis Pharmaceuticals, Inc., priority 2008, published 2023):
Values belong to the molecule of their own block, whether it stands above or below them.

Legend:
platelet factor-4 (PF-4) [1] = test: Thrombus formation by PF-4, FeCl3 induced VT model, combination with PLAVIX (Example 26); assay type: in vivo, BALB/c mice; settings: for PF-4 mRNA, percent as compared to the PBS + FeCl3 control (thrombus formation): ISIS 404071 0 mg/kg
Method: The combination of ISIS 404071 and PLAVIX was evaluated in the FeCl3 induced VT mouse model. Four groups of eight BALB/c mice, weighing approximately 25 g each, were treated with 6.25 mg/kg, 12.50 mg/kg, 25.00 mg/kg, or 50.00 mg/kg of PLAVIX. Mice were given two doses of PLAVIX on day one and one dose of PLAVIX on day two, two hours before surgery.
(§1) After the last dose of ISIS 404071, mice were treated with 6.25 mg/kg, 12.50 mg/kg, 25.00 mg/kg, or 50.00 mg/kg of PLAVIX. Two doses of PLAVIX were administered to the mice on day one and one dose of PLAVIX was administered on day two, two hours before surgery.
Two control groups of eight BALB/c mice, weighing approximately 25 g each, were not treated with ISIS 404071 or PLAVIX. […] Thrombus formation was induced with FeCl3 in all of the mice except the first […] control groups. All mice were anesthetized with 150 mg/kg of ketamine mixed with 10 mg/kg of xylazine administered by intraperitoneal injection.
After 3 minutes of exposure, the filter paper was removed. Thirty minutes after the filter paper application, a fixed length of the vein containing the thrombus was dissected out for platelet analysis.
Real-time PCR quantification of PF-4 was used to quantify platelets in the vena cava as a measure of thrombus formation. […] Therefore, the combination of anti-platelet therapy with Factor 11 ASO increases antithrombotic activity. Data is presented as percent of PF-4 mRNA as compared to the PBS+ FeCl3 control.

[2] = Tail bleeding assay, combination with PLAVIX (Example 27); assay type: in vivo, BALB/c mice; settings: ISIS 404071 0
Method: as §1, with “ISIS 404071 was administered subcutaneously at a dosage of 20 mg/kg twice a week for 3 weeks to 5 groups of eight BALB/c mice. After” for “After”, “with 0 mg/kg,” for “with”, “bleeding.” for “surgery.”
Two hours after receiving their final treatment, mice were placed in a tail bleeding chamber. […] The blood was collected for the course of 40 minutes.

[3] = design: species or system BALB/c mice; settings: mouse, in vivo
Method: ISIS 404071 and Apixaban were evaluated in the tail bleeding model.
The saline filled tubes were weighed before and after bleeding.

[4] = apixaban added to aspirin and to aspirin plus clopidogrel, compared with aspirin alone and aspirin plus clopidogrel (Wong); cited from earlier work
platelet factor-4 (PF-4) [5] = test: Thrombus formation by PF-4 real-time PCR, FeCl3 induced venous thrombosis model vs Apixaban (Example 14); assay type: in vivo, BALB/c mice; settings: for PF-4 in vena cava, percentage as compared to PBS controls (thrombus formation): + FeCl3
Method: (§2) ISIS 404071 and Apixaban were evaluated in the FeCl3 induced VT mouse model. […] Two days after receiving the last dose of ISIS 404071, mice were anesthetized with 150 mg/kg ketamine mixed with 10 mg/kg xylazine administered by intraperitoneal injection. […] Twenty minutes after receiving Apixaban, mice were anesthetized with 150 mg/kg ketamine mixed with 10 mg/kg xylazine administered by intraperitoneal injection. […] Two days after the last dose of PBS, mice in both groups were anesthetized with 150 mg/kg ketamine mixed with 10 mg/kg xylazine administered by intraperitoneal injection. Thrombus formation was induced with FeCl3 in all of the mice except the first control group.
(§3) In mice undergoing FeCl3 treatment, thrombus formation was induced by applying a piece of filter paper (2×4 mm) pre-saturated with 10% FeCl3 solution directly on the vena cava. After 3 minutes of exposure, the filter paper was removed. Thirty minutes after the filter paper application, a fixed length of the vein containing the thrombus was dissected out for platelet analysis. Liver was collected for RNA analysis.
Real-time PCR quantification of platelet factor-4 (PF-4) was used to quantify platelets in the vena cava as a measure of thrombus formation. […] Results are presented as a percentage of PF-4 in ISIS 404071 or Apixaban treated mice, as compared to the two PBS-treated control groups.

Factor 11 mRNA = Factor 11 mRNA in liver, FeCl3 induced venous thrombosis model vs Apixaban (Example 14); assay type: in vivo, BALB/c mice; settings: for % inhibition of Factor 11 mRNA in liver relative to PBS control: FeCl3 VT model
Method: as §2, §3
RNA was extracted from liver tissue for real-time PCR analysis of Factor 11. Results are presented as percent inhibition of Factor 11, relative to PBS control.

[6] = Tail bleeding assay, Apixaban in combination with PLAVIX (Example 28); assay type: in vivo, BALB/c mice
Method: Five groups of eight BALB/c mice were treated with 0 mg/kg, 6.25 mg/kg, 12.50 mg/kg, 25.00 mg/kg, or 50.00 mg/kg of PLAVIX. Mice were given two doses of PLAVIX on day one and one dose of PLAVIX on day two, two hours before bleeding. An additional five groups of eight BALB/c mice were treated with 0 mg/kg, 6.25 mg/kg, 12.50 mg/kg, 25.00 mg/kg, or 50.00 mg/kg of PLAVIX. Mice were given two doses of PLAVIX on day one and one dose of PLAVIX on day two, two hours before bleeding. […] Two hours after receiving their final treatment, mice were placed in a tail bleeding chamber.

blood coagulation = test: PT and aPTT, combination with Apixaban (Example 20); assay type: in vivo, BALB/c mice
Method: PT and aPTT were measured using PPP from mice treated with ISIS 404071 in combination with Apixaban. In the first cohort, ISIS 404071 was administered subcutaneously to BALB/c mice at a dosage of 25 mg/kg twice a week for 3 weeks. Plasma was collected from these mice 5 days after receiving the last dose of ISIS 404071. In the second cohort, Apixaban was administered subcutaneously to BALB/c mice at a dosage of 6 mg/kg twice daily for three days. Plasma was collected from these mice 20 minutes after receiving the last dose of Apixaban. In the third cohort, ISIS 404071 was administered subcutaneously to BALB/c mice at a dosage of 20 mg/kg twice a week for 3 weeks, and Apixaban was administered subcutaneously at a dosage of 6 mg/kg twice daily on the last three days of ISIS 404071 treatment. Plasma was collected from these mice 20 minutes after receiving the last dose of Apixaban. In a fourth cohort, PBS was administered subcutaneously twice a week for three weeks, as a control. Plasma was collected 5 days after the last dose of PBS.
PT and aPTT values provided in Table 32 are reported as International Normalized Ratio (INR) values. […] However, Apixaban and Apixaban combined with ISIS 404071 increased PT. Also shown in Table 32, Apixaban, ISIS 404071, and ISIS 404071 combined with Apixaban increase aPTT.

[7] = Apixaban 0.5 mg/kg subcutaneously one time
[8] = Apixaban 2 mg/kg subcutaneously one time
[9] = Apixaban 5 mg/kg subcutaneously one time
[10] = Apixaban 10 mg/kg subcutaneously one time
[11] = Apixaban 20 mg/kg subcutaneously one time
[12] = BALB/c mice, ISIS 404071 25 or 20 mg/kg, Apixaban 6 mg/kg twice daily
[13] = ISIS 404071 alone 25 mg/kg s.c. twice a week for 3 weeks, Apixaban alone 6 mg/kg s.c. twice daily for three days, combination 20 mg/kg + 6 mg/kg

Blood (tail bleeding, collected for 40 minutes) ([2]; PLAVIX 6.25 mg/kg): 0.075 g | Blood (tail bleeding, collected for 40 minutes) ([2]; PLAVIX 12.50 mg/kg): 0.205 g | Blood (tail bleeding, collected for 40 minutes) ([2]; PLAVIX 50.00 mg/kg): 0.628 g
SMILES: COC(=O)[C@H](c1ccccc1Cl)N1CCc2sccc2C1 [PLAVIX, clopidogrel]
PF-4 in vena cava as measure of thrombus formation (platelet factor-4 (PF-4) [1]; FeCl3 induced VT model, PLAVIX 6.25-50 mg/kg, ISIS 404071 20 mg/kg): resulted in a reduction of PF-4 | PF-4 mRNA, percent as compared to the PBS + FeCl3 control (thrombus formation) (platelet factor-4 (PF-4) [1]; PLAVIX 6.25 mg/kg): 59% | PF-4 mRNA, percent as compared to the PBS + FeCl3 control (thrombus formation) (platelet factor-4 (PF-4) [1]; PLAVIX 12.50 mg/kg): 37% | PF-4 mRNA, percent as compared to the PBS + FeCl3 control (thrombus formation) (platelet factor-4 (PF-4) [1]; PLAVIX 50.00 mg/kg): 30% | PF-4 mRNA, percent as compared to the PBS + FeCl3 control (thrombus formation) (platelet factor-4 (PF-4) [1]; PLAVIX […]): 30%

bleeding in tail bleeding assay [3]: did increase bleeding | bleeding risk in tail bleeding assay ([6]; Apixaban 0.5 mg/kg i.p. in combination with anti-platelet therapy (PLAVIX 0-50 mg/kg)): increases bleeding risk | Blood (tail bleeding, collected for 40 minutes) ([6]; Apixaban 0.5 mg/kg intraperitoneally 20 minutes before bleeding, PLAVIX 0): 0.004 g
SMILES: COc1ccc(-n2nc(C(N)=O)c3c2C(=O)N(c2ccc(N4CCCCC4=O)cc2)CC3)cc1 [Apixaban, reference compound]
bleeding time [4]: significant increase in bleeding time | PF-4 in vena cava, percentage as compared to PBS controls (thrombus formation) (platelet factor-4 (PF-4) [5]; [7]): 67% | PF-4 in vena cava, percentage as compared to PBS controls (thrombus formation) (platelet factor-4 (PF-4) [5]; [8]): 46% | PF-4 in vena cava, percentage as compared to PBS controls (thrombus formation) (platelet factor-4 (PF-4) [5]; [9]): 15% | PF-4 in vena cava, percentage as compared to PBS controls (thrombus formation) (platelet factor-4 (PF-4) [5]; [10]): 5% | PF-4 in vena cava, percentage as compared to PBS controls (thrombus formation) (platelet factor-4 (PF-4) [5]; [11]): 26% | PF-4 in vena cava as measure of thrombus formation (platelet factor-4 (PF-4) [5]; FeCl3 induced VT model, vs PBS control): also resulted in reduction of PF-4 | % inhibition of Factor 11 mRNA in liver relative to PBS control (Factor 11 mRNA; [7]): 5% | % inhibition of Factor 11 mRNA in liver relative to PBS control (Factor 11 mRNA; [8]): 8% | % inhibition of Factor 11 mRNA in liver relative to PBS control (Factor 11 mRNA; [9]): 12% | % inhibition of Factor 11 mRNA in liver relative to PBS control (Factor 11 mRNA; [10]): 2% | % inhibition of Factor 11 mRNA in liver relative to PBS control (Factor 11 mRNA; [11]): 0% | Factor 11 mRNA in liver vs PBS control (Factor 11 mRNA; FeCl3 induced VT model, ISIS 404071 1.25-40 mg/kg, Apixaban 0.5-5 mg/kg s.c. once): did not result in significant reduction of Factor 11 | PT (blood coagulation; [12]): increased PT | aPTT (blood coagulation; [12]): increase aPTT | PT INR (blood coagulation; [13]): 3.25 INR | aPTT INR (blood coagulation; [13]): 1.44 INR
